Experimental data as given in US10059955B2, “Hibiscus cannabinus feruloyl-CoA:monolignol transferase” (Wisconsin Alumni Research Foundation (WARF), priority 2011, dated 2018).
“Also recorded” adds a separate entry of the source.

B1: Angelica sinensis FMT: Angelica sinensis clone Dq155 pdest17 feruloyl-CoA:monolignol transferase enzyme, SEQ ID NO:2 (protein)
chain: MTIMEVQVVSKKMVKPSVPTPDHHKTCKLTAFDQIAPPDQVPIIYFYNSSNIHNIREQLVKSLSETLTKFYPLAGRFVQDGFYVDCNDEGVLYVEAEVNIPLNEFIGQAKKNIQLINDLVPKKNFKDIHSYENPIVGLQMSYFKCGGLAICMYLSHVVADGYTAAAFTKEWSNTTNGIINGDQLVSSSPINFELATLVPARDLSTVIKPAVMPPSKIKETKVVTRRFLFDENAISAFKDHVIKSESVNRPTRVEVVTSVLWKALINQSKLPSSTLYFHLNFRGKTGINTPPLDNHFSLCGNFYTQVPTRFRGGNQTKQDLELHELVKLLRGKLRNTLKNCSEINTADGLFLEAASNFNIIQEDLEDEQVDVRIFTTLCRMPLYETEFGWGKPEWVTIPEMHLEIVFLLDTKCGTGIEALVSMDEADMLQFELDPTISAFAS
B2: Hibiscus cannabinus FMT: Hibiscus cannabinus (Kenaf) feruloyl-CoA:monolignol transferase enzyme, SEQ ID NO:9, expressed with N-terminal 6xHis tag in E. coli (protein)
chain: MATHSTIMFSVDRNDVVFVKPFKPTPSQVLSLSTIDNDPNLEIMCHTVFVYQANADFDVKPKDPASIIQEALSKLLVYYYPLAGKMKRETDGKLRIACTADDSVPFLVATADCKLSSLNHLDGIDVHTGKEFALDFASESDGGYYHPLVMQVTKFICGGFTIALSLSHSVCDGFGAAQIFQALTELASGRNEPSVKPVWERQLLVAKPAEEIPRSIVDKDLSAASPYLPTTDIVHACFYVTEESIKTLKMNLIKESKDESITSLEVLSAYIWRARFRALKLSPDKTTMLGMAVGIRRTVKPRLPEGYYGNAFTSANTAMTGKELDQGPLSKAVKQIKESKKLASENDYIWNLMSINEKLRELNSKFEAAAGSTMVITDWRRLGLLEDVDFGWKGSVNMIPLPWNMFGYVDLVLLLPPCKLDQSMKGGARVLVSFPTAAIAKFKEEMDALKHDNKVAGDALVI
modifications: N-terminal 6xHis tag

Key:
[1] = tested on: feruloyl-CoA:monolignol transferase from Angelica sinensis; assay: FMT enzymatic assay with purified recombinant Angelica sinensis FMT (UPLC detection of product); assay type: biochemical; settings: for product formed from acyl-CoA donor substrate: coniferyl alcohol as acceptor, FIGS. 2, 6, 7; for enzyme activity with monolignol as acyl acceptor substrate: feruloyl-CoA as acyl donor, FIGS. 2, 4, 5
Experimental: The feruloyl-CoA, p-coumaroyl-CoA, and caffeoyl-CoA substrates used in the FMT assay were enzymatically synthesized using the tobacco 4-coumarate-CoA-ligase (4CL) with a c-terminal HIS tag in pCRT7/CT TOPO, provided by Eran Pichersky. Following a method modified from Beuerle and Pichersky (Anal. Biochem. 302(2): 305-12 (2001)) 3.3 mg of ferulic acid, coumaric acid or caffeic acid, 2 mg coenzyme A, and 6.9 mg ATP were added to 50 mM Tris-hydrochloride pH 8 and 2.5 mM magnesium chloride in a final volume of 10 ml. The reaction was started by adding 0.25 mg 4CL, protein purified as described by the method of Beurerle and Pichershy. After a five-hour incubation at room temperature, additional 6.9 mg ATP, 2 mg coenzyme A, and 0.25 mg purified 4CL were added and the reaction was incubated overnight. The CoA esters were purified on an SPE cartridge as described in Beuerle and Pichersky (2001).
(§1) The FMT activity assay contained 100 mM MOPS pH 6.8, 1 mM dithiothreitol (DTT), 1 mM feruloyl-CoA, 1 mM coniferyl alcohol, 3.9 μg of purified FMT protein and deionized water to a volume of 50 μL. After a 30-minute incubation, 1 μL of 10 M hydrochloric acid was added to stop the reaction. Because the product synthesized in the reaction, coniferyl ferulate (CAFA), is insoluble, 50 μL of methanol was added to solubilize the CAFA. Prior to UPLC, protein and insoluble material were removed by filtering through an Amicon Ultracel 10K membrane filter (Millipore). The flow-through was analyzed using an Acquity Ultra Performance LC with an Acquity UPLC BEH C18 1.7 μm 2.1×100 mm column and the Acquity Console and Empower 2 Software, all from Waters Corporation. The solvents used in this method were solvent A, 0.1% trifluoroacetic acid, and solvent B, 100% acetonitrile. Samples were analyzed using the following gradient conditions, 13% B, for 5 minutes, 1 minute linear gradient to 42% B, held for 4 minutes, 1 minute linear gradient to 100% B, held for 1 minutes and 3 minutes at 13% B with a flow rate of 0.3 ml/minute. This method was then used to analyze a 10 μL injection of each assay reaction; standards for each of the substrates along with chemically synthesized CAFA were used to determine retention times for each compound.
Purified recombinant enzyme was assayed for FMT activity using a reaction mixture containing 2 mM coniferyl alcohol, […], 100 mM HEPES pH 7.4 and 1 mM DTT. The second most abundant BAHD acyltransferase gene when incubated with Coniferyl alcohol and feruloyl-CoA produced a compound with the retention time of authentic coniferyl ferulate (CAFA) (FIG. 2). […] The addition of methanol to 50% after stopping the enzyme with acid was required to analyze the product by UPLC. The insolubility of the product made partial purification easy as the product was separated from the substrates by centrifugation.

[2] = Solubility of the assay product coniferyl ferulate in the aqueous reaction mixture; assay type: physicochemical; settings: before addition of methanol to 50%
Experimental: as §1, with “compound. […]” for “compound.”

Angelica sinensis FMT = assay: FMT enzyme assay of transgenic poplar leaf extracts; assay type: biochemical; settings: extracts from transgenic hybrid poplar expressing YFP-FMT; none in wild type or no enzyme control; FIG. 10B
From the text: Hybrid poplar (Populus alba×grandidentata) was transformed using Agrobacterium tumefaciens EHA105 employing a common leaf disk inoculation. Two constructs were created to drive the expression of FMT in poplar: 1) 35S::YFP-FMT (cauliflower mosaic virus ubiquitous 35S promoter with an N-terminal tagged Yellow Fluorescent Protein), and 2) CesA8::YFP-FMT (poplar xylem-specific secondary cell wall specific cellulose synthase 8 promoter with an N-terminal tagged Yellow Fluorescent Protein). The binary plasmids were inserted into EHA105 using the freeze-thaw technique, and incubated overnight in liquid Woody Plant Media (WPM) supplemented with 100 μM acetosyringone. Leaf disks were cut and co-cultured with EHA105 for one hour at room temperature, blotted dry and plated abaxailly onto WPM supplemented with 0.1 μM each α-naphthalene acetic acid (NAA), 6-benzylaminopurine (BA), and thiadiazuron (TDZ) and solidified with 3% (w/v) agar and 1.1% (w/v) phytagel (WPM 0.1/0.1/0.1). […]
Purification of YFP-FMT was via GFPtrap_A (Chromotek) following the manufactures guidelines. […] These samples were analyzed by western blot and the UPLC method described in the Examples above. Formation of coniferyl ferulate was also detected by comparison of the UPLC traces of leaf extracts with authentic coniferyl ferulate.

[3] = tested on: Angelica sinensis feruloyl-CoA:monolignol transferase; assay: FMT enzyme assay of transgenic Arabidopsis stems; assay type: biochemical; settings: none with empty vector, FIG. 11B
From the text: Arabidopsis were transformed by standard procedures with the Angelica sinensis feruloyl-CoA:monolignol transferase nucleic acids described herein. […] FMT expression was detected by Reverse Transcriptase PCR of […] isolated from the transgenic Arabidopsis leaves. Enzymatic activity by the expressed FMT was detected using the assay described in Example 1.

Hibiscus cannabinus FMT = assay: FMT enzymatic assay with purified Kenaf FMT (UPLC detection of coniferyl ferulate); assay type: biochemical; settings: Ni2+ column fractions 29 and 30; 1 mM feruloyl CoA, 1 mM coniferyl alcohol, pH 6, 45 min; FIG. 12B
Experimental: The feruloyl CoA, p-coumaroyl CoA, and caffeoyl CoA substrates used in the FMT assay were enzymatically synthesized using the tobacco 4-coumarate CoA-ligase (4CL) with a c-terminal HIS tag in pCRT7/CT TOPO. Following a method modified from Beuerle and Pichersky (2001) 3.3 mg of ferulic acid, coumaric acid or caffeic acid, 2 mg coenzyme A, and 6.9 mg ATP were 50 mM Tris-hydrochloride pH 8, 2.5 mM magnesium chloride in a final volume of 10 ml. The reaction was started by adding 0.25 mg 4CL protein, purified as described by the method of Beurerle and Pichershy. After a five-hour incubation at room temperature, an additional 6.9 mg ATP, 2 mg coenzyme A, and 0.25 mg purified 4CL were added and the reaction was incubated overnight. […]
The FMT activity assay contained 100 mM sodium phosphate buffer pH 6, 1 mM dithiothreitol (DTT), 1 mM feruloyl CoA, 1 mM coniferyl alcohol, 0.5 μg of purified Kenaf FMT protein and deionized water to a volume of 50 μLL. […] The flow-through was analyzed using an Acquity Ultra Performance LC with an Acquity UPLC BEH C18 1.7 μm 2.1×100 mm column and the Acquity Console and Empower 2 Software, all from Waters Corporation. […] Samples were analyzed using the following gradient conditions, 13% B, for 5 minutes, 1 minute linear gradient to 42% B, held for 4 minutes, 1 minute linear gradient to 100% B, held for 1 minute and 3 minutes at 13% B with a flow rate of 0.3 ml/minute. […]

Molecule | product formed from acyl-CoA donor substrate [1] | enzyme activity with monolignol as acyl acceptor substrate [1] | also measured
COc1cc(/C=C/C(=O)SCCNC(=O)CCNC(=O)[C@H](O)C(C)(C)COP(=O)(O)OP(=O)(O)OC[C@H]2O[C@@H](n3cnc4c(N)ncnc43)[C@H](O)[C@@H]2OP(=O)(O)O)ccc1O [feruloyl-CoA] | substantial product |  | 
COc1cc(/C=C/CO)ccc1O [coniferyl alcohol] |  | active | 
CC(C)(COP(=O)(O)OP(=O)(O)OC[C@H]1O[C@@H](n2cnc3c(N)ncnc32)[C@H](O)[C@@H]1OP(=O)(O)O)[C@@H](O)C(=O)NCCC(=O)NCCSC(=O)/C=C/c1ccc(O)c(O)c1 [caffeoyl-CoA] | very little product |  | 
OC/C=C/c1ccc(O)cc1 [p-coumaryl alcohol] |  | active | 
COc1cc(/C=C/CO)cc(OC)c1O [sinapyl alcohol] |  | active | 
CC(C)(COP(=O)(O)OP(=O)(O)OC[C@H]1O[C@@H](n2cnc3c(N)ncnc32)[C@H](O)[C@@H]1OP(=O)(O)O)[C@@H](O)C(=O)NCCC(=O)NCCSC(=O)/C=C/c1ccc(O)cc1 [p-coumaroyl-CoA] | very little product |  | 
COc1cc(/C=C/COC(=O)/C=C/c2ccc(O)c(OC)c2)ccc1O [coniferyl ferulate] |  |  | solubility of product in water / assay mixture [2]: mostly insoluble in water; also recorded: partially insoluble
B1 |  |  | FMT activity in leaf extracts (product peak at retention time of authentic coniferyl ferulate) (Angelica sinensis FMT): FMT activity was identified; FMT activity in ground stems (coniferyl ferulate detected) [3]: enzymatically active
B2 |  |  | FMT activity: production of coniferyl ferulate from coniferyl alcohol and feruloyl-CoA (Hibiscus cannabinus FMT): production of coniferyl ferulate (3) is visible
